Read-outs that look alike come from different tables or passages of the source.
Experiments:
HRH3 [1] = molecular target: T1, HRH3 (Homo sapiens, UniProt Q9Y5N1); assay: cell-based; set-up: species or system HTLA; PRESTO-Tango beta-arrestin2 recruitment, luciferase luminescence, concentration-response; settings: Assay=Tango; agonist mode
CHRM4 = molecular target: T2, CHRM4 (Homo sapiens, UniProt P08173); assay: cell-based; set-up: species or system HEK293; GloSensor-22F cAMP assay, Gi-mediated inhibition of isoproterenol-stimulated cAMP; antagonist mode against agonist EC80; settings: Assay=Gi, agonist mode, % of control agonist
T2 sequence (P08173 1-479): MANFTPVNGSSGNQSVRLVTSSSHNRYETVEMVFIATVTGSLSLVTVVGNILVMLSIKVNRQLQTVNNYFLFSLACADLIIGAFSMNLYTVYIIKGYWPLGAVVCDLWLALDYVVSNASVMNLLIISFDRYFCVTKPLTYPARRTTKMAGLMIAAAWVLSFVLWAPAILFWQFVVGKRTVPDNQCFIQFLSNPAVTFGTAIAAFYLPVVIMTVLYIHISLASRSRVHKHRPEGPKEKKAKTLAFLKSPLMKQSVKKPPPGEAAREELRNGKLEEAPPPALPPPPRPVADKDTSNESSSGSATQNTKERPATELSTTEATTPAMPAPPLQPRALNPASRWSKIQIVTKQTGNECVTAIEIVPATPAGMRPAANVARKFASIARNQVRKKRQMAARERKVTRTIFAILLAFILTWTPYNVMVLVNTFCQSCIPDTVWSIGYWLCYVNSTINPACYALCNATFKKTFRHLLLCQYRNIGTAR

CHRM2 [2] = molecular target: T3, CHRM2 (Homo sapiens, UniProt P08172); assay: cell-based; set-up: species or system HEK293; GloSensor-22F cAMP assay, Gi-mediated inhibition of isoproterenol-stimulated cAMP; antagonist mode against agonist EC80; settings: Assay=Gi, agonist mode, % of control agonist
T3 sequence (P08172 1-466): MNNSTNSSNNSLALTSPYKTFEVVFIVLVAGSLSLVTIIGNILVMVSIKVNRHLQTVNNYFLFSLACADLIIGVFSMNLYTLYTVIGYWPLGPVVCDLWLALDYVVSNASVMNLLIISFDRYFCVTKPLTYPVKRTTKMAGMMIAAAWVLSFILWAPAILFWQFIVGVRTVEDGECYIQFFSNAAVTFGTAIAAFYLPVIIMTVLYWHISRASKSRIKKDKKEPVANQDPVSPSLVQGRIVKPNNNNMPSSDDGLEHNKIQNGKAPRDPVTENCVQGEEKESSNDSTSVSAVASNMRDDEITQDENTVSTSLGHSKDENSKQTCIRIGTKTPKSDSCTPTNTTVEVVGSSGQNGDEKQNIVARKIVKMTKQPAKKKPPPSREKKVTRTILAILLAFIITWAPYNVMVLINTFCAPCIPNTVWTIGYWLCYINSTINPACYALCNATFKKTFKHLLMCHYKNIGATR

HRH3 [3] = molecular target: T1, HRH3; assay: cell-based; set-up: species or system HEK293; TRUPATH BRET2 G-protein dissociation; antagonist mode against agonist EC80; settings: agonist mode, % of control agonist
HTR1D = HTR1D (Homo sapiens, UniProt P28221); assay: cell-based; set-up: species or system HEK293; TRUPATH BRET2 G-protein dissociation; antagonist mode against agonist EC80; settings: agonist mode, % of control agonist
Sequence of HTR1D (P28221 whole entry): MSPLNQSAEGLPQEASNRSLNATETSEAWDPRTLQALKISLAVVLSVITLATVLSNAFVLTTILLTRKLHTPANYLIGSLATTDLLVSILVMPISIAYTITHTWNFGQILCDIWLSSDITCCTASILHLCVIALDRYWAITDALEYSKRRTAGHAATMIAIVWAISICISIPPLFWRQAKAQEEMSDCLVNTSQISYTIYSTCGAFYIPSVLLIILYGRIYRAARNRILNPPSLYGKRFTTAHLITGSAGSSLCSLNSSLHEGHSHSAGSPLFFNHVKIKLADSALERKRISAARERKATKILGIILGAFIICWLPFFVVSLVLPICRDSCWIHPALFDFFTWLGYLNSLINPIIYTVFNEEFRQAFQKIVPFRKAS

HTR1A = molecular target: T4, HTR1A (Homo sapiens, UniProt P08908); assay: cell-based; set-up: species or system HEK293; TRUPATH BRET2 G-protein dissociation; antagonist mode against agonist EC80; settings: agonist mode, % of control agonist
T4 sequence (P08908 1-422): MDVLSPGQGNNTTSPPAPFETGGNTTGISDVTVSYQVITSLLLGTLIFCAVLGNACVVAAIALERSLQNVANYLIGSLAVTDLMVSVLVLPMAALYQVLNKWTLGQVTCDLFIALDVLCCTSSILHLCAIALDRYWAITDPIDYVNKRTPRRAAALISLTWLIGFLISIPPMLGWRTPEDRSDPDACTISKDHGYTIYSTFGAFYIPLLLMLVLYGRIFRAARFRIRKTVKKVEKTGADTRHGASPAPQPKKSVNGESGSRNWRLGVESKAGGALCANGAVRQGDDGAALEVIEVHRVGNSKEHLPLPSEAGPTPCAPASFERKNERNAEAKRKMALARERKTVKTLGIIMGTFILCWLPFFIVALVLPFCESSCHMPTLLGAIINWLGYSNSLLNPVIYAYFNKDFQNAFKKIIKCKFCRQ

CHRM2 [4] = molecular target: T3, CHRM2; assay: cell-based; set-up: species or system HEK293; TRUPATH BRET2 G-protein dissociation; antagonist mode against agonist EC80; settings: agonist mode, % of control agonist
HRH4 = HRH4 (Homo sapiens, UniProt Q9H3N8); assay: cell-based; set-up: species or system HEK293; TRUPATH BRET2 G-protein dissociation; antagonist mode against agonist EC80; settings: N-Desmethyl Xanomeline, agonist mode
Sequence of HRH4 (Q9H3N8 whole entry): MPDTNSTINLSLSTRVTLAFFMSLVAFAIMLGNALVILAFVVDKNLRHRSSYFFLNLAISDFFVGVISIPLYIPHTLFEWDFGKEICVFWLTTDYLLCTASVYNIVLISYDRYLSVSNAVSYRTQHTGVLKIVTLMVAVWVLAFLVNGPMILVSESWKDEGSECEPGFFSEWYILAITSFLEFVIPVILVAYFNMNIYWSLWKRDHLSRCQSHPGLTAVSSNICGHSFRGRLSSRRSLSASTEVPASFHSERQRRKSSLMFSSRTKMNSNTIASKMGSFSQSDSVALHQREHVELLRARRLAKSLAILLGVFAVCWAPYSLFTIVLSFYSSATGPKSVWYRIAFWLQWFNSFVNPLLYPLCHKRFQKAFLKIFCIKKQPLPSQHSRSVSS

α2A = molecular target: T5, α2A (Homo sapiens, UniProt P08913); assay: competitive radioligand binding, HEK293 membranes
T5 construct: gene ADRA2A; full-length receptor; HEK293 cell membranes
T5 sequence (P08913 whole entry): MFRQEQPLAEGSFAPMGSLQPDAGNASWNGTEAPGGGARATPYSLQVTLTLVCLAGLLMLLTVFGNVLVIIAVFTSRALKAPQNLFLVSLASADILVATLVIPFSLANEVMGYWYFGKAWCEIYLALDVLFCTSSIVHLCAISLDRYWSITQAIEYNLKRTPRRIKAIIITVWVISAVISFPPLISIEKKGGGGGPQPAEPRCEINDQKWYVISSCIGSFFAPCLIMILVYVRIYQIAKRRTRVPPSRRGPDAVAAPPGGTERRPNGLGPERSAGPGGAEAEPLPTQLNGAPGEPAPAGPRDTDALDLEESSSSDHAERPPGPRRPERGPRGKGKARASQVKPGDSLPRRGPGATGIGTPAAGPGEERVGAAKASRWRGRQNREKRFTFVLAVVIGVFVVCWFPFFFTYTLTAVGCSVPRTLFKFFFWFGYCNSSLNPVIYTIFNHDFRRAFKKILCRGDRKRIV
From the text: competitive radioligand binding, HEK293 membranes on α2A

CHRM3 = CHRM3 (Homo sapiens, UniProt P20309); assay: cell-based; set-up: species or system HEK293; Fluo-4 Direct calcium mobilization on FLIPR-Tetra; settings: Assay=Calcium; agonist mode
Sequence of CHRM3 (P20309 whole entry): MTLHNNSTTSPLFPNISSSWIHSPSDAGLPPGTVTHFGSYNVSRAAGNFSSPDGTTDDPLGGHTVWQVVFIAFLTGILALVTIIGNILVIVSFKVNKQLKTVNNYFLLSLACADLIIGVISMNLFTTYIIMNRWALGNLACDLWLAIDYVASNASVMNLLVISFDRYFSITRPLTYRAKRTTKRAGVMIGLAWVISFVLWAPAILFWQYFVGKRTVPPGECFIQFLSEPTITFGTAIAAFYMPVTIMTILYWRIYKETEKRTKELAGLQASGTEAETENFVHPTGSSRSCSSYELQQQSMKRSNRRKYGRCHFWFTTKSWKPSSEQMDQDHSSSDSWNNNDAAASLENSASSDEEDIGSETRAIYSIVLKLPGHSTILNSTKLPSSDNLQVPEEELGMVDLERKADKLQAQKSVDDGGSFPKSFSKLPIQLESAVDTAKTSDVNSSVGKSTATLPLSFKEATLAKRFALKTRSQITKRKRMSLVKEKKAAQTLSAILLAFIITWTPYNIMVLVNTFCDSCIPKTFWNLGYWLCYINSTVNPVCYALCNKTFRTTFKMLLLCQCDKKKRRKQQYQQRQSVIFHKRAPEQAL

[5] = HEK293, read-out: N-Desmethyl Xanomeline
[6] = HEK293, read-out: N-Desmethyl Xanomeline, Assay=Gi1
[7] = HEK293, read-out: N-Desmethyl Xanomeline, Assay=Gi2
[8] = HEK293, read-out: N-Desmethyl Xanomeline, Assay=Gi3
[9] = HEK293, read-out: N-Desmethyl Xanomeline, Assay=GoA
[10] = HEK293, read-out: N-Desmethyl Xanomeline, Assay=GoB
[11] = HEK293, read-out: N-Desmethyl Xanomeline, Assay=Gz
[12] = HEK293, read-out: Xanomeline, Assay=Gi2
[13] = HEK293, read-out: Xanomeline, Assay=GoA
[14] = HEK293, read-out: Xanomeline, Assay=GoB
[15] = HEK293, read-out: Xanomeline, Assay=Gi1
[16] = HEK293, read-out: Xanomeline, Assay=Gi3
[17] = HEK293, read-out: Xanomeline, Assay=Gz

T1 sequence (Q9Y5N1 whole entry): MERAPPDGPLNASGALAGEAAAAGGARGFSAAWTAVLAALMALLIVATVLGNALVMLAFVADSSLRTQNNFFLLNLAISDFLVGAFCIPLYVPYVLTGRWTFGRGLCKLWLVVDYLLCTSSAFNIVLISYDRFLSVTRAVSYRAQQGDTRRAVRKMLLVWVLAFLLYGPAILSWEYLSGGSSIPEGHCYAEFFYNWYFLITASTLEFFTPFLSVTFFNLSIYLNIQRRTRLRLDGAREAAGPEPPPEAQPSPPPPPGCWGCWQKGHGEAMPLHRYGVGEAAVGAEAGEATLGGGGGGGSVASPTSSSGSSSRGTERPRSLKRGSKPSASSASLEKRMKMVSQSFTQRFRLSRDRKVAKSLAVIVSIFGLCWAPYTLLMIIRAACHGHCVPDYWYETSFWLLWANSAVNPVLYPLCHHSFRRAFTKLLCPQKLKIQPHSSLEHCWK

CCCCCCOc1nsnc1C1=CCCNC1 [N-desmethylxanomeline]
EC50 (HRH3 [1]): 7.58 µM | Emax (CHRM4; [5]): 84.4% | Emax (CHRM2 [2]; [5]): 107% | Emax (HRH3 [3]; [6]): 75.4% | Emax (HRH3 [3]; [7]): 65.4% | Emax (HRH3 [3]; [8]): 84% | Emax (HRH3 [3]; [9]): 79.3% | Emax (HRH3 [3]; [10]): 82.8% | Emax (HTR1D; [6]): 88.1% | Emax (HTR1D; [7]): 66.3% | Emax (HTR1D; [8]): 82.1% | Emax (HTR1D; [9]): 92.2% | Emax (HTR1D; [10]): 73.8% | Emax (HTR1D; [11]): 93.6% | Emax (HTR1A; [7]): 103% | Emax (HTR1A; [9]): 97.4% | Emax (HTR1A; [10]): 98.8% | Emax (CHRM2 [4]; [6]): 87.3% | Emax (CHRM2 [4]; [7]): 88.1% | Emax (CHRM2 [4]; [8]): 65.4% | Emax (CHRM2 [4]; [9]): 101% | Emax (CHRM2 [4]; [10]): 95.1% | Emax (CHRM2 [4]; [11]): 81.5% | EC50 (HRH4; Assay=Gi1): 4.87 µM | EC50 (HRH4; Assay=Gi2): 1.39 µM | EC50 (HRH4; Assay=Gi3): 6.36 µM | EC50 (HRH4; Assay=GoA): 6.25 µM | Ki (α2A): 0.437 µM | EC50 (CHRM3): 0.0641 µM

CCCCCCOc1nsnc1C1=CCCN(C)C1 [Xanomeline]
EC50 (HRH3 [1]): 9.44 µM | Emax (CHRM4; HEK293, read-out: Xanomeline): 87.2% | Emax (CHRM2 [2]; HEK293, read-out: Xanomeline): 85.9% | Emax (HRH3 [3]; [12]): 28.5% | Emax (HRH3 [3]; [13]): 25.7% | Emax (HRH3 [3]; [14]): 19% | Emax (HTR1D; [15]): 69.7% | Emax (HTR1D; [12]): 52.7% | Emax (HTR1D; [16]): 66.7% | Emax (HTR1D; [13]): 86.5% | Emax (HTR1D; [14]): 63.4% | Emax (HTR1D; [17]): 85.3% | Emax (HTR1A; [12]): 99.6% | Emax (HTR1A; [13]): 94.5% | Emax (HTR1A; [14]): 91.7% | Emax (CHRM2 [4]; [15]): 64.6% | Emax (CHRM2 [4]; [12]): 81.2% | Emax (CHRM2 [4]; [16]): 30.2% | Emax (CHRM2 [4]; [13]): 99.1% | Emax (CHRM2 [4]; [14]): 97.2% | Emax (CHRM2 [4]; [17]): 60.4% | Ki (α2A): 0.955 µM | EC50 (CHRM3): 0.034 µM
